biological target: T1, P. aeruginosa LpxC (Pseudomonas aeruginosa, UniProt P47205); assay: biochemical; settings: 1 nM P. aeruginosa LpxC, 30 min pre-incubation, 2 μM UDP-3-O-(R-3-hydroxydecanoyl)-GlcNAc, pH 7.5, room temperature; read-out: IC50 (LpxC inhibitory activity)
T1 construct: made in house
T1 sequence (P47205 1-303): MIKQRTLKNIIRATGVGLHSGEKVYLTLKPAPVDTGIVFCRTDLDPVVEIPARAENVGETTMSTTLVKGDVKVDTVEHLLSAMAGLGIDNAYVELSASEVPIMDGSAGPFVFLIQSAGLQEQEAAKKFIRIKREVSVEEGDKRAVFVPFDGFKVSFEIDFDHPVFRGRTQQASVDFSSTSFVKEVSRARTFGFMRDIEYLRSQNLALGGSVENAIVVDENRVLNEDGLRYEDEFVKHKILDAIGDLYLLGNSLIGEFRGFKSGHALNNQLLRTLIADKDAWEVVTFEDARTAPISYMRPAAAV
Source text: The LC-MS/MS method for quantitation of LpxC product was developed using an Agilent 1200 Capillary HPLC system coupled to an Applied Biosystems MDS Sciex 4000QTRAP mass spectrometer. Both instruments are controlled using the Applied Biosystems MDS Sciex Analyst software. LpxC reaction product (UDP-3-O—(R-3-hydroxyacyl)-glucosamine) was produced by hydrolysis of LpxC substrate catalyzed by P. a. LpxC and purified using reversed phase chromatography on a Phenomenex Luna C18(2) 4.6×50 mm column. An LpxC product calibration curve was generated to evaluate the sensitivity and dynamic range of the LC-MS/MS method. Briefly, compounds are pre-incubated with 1 nM P. aeruginosa LpxC for 30 min. at room temperature. Reactions are initiated by the addition of 2 μM UDP-3-O—(R-3-hydroxydecanoyl)-GlcNAc. Reactions are conducted in a 96-well plate with a total volume of 100 μL in each well containing 50 mM Sodium phosphate pH 7.5, 0.005% Trition X-100 for 20 min at room temperature. After quenching with 1.8% HOAc (10 μL of a 20% HOAc added to each well), reaction mixtures are analyzed using the LC-MS/MS method and peak areas are transformed into product concentration using a LpxC product calibration curve. […] For IC50 determinations, peak areas are converted to percent inhibition in Microsoft Excel. Percent inhibition values are plotted vs. log compound concentration using XLfit. Data is fit to the four-parameter logistic equation using the non-linear regression algorithm in XLfit to return the IC50 and hill slope values.

| IC50 | SMILES |
| --- | --- |
| 183 nM | CC(C)(O)C#CCOc1ccc(C(=O)NC(C(=O)NO)C(C)(C)N)cc1 (stereo not drawn) [Example 8, N-(3-amino-1-(hydroxyamino)-3-methyl-1-oxobutan-2-yl)-4-(4-hydroxy-4-methylpent-2-ynyloxy)benzamide] |
| 35.1 nM | CC#CCCOc1ccc(C(=O)NC(C(=O)NO)C(C)(C)N)cc1 (stereo not drawn) [Example 25] |
| 141 nM | CC#CC(C)Oc1ccc(C(=O)N[C@H](C(=O)NO)[C@@H](C)N)cc1 (stereo partly drawn) [Example 31] |
| 4.1 nM | CC#CCOc1c(F)cc(C(=O)NC(C(=O)NO)C(C)(C)N)cc1F (stereo not drawn) [Example 56] |
| 6.5 nM | C[C@@H](N)[C@H](NC(=O)c1ccc(OCC#CC2CCC2)cc1)C(=O)NO [Example 58] |
| 540 nM | CC(C)(N)[C@H](NC(=O)c1ccc(OCC#Cc2ccc3c(c2)CCO3)cc1)C(=O)NO [Example 67] |
| 0.2 nM | CCCCC#C/C=C/COc1ccc(C(=O)N[C@H](C(=O)NO)C(C)(C)N)cc1 [Example 64] |
| 13.7 nM | CC#CCOc1ccc(C(=O)NC(C(=O)NO)C2(N)CC2)cc1 (stereo not drawn) [Example 1, N-(1-(1-aminocyclopropyl)-2-(hydroxyamino)-2-oxoethyl)-4-(but-2-ynyloxy)benzamide] |
| 3.2 nM | CC#CCOc1ccc(C(=O)N[C@H](C(=O)NO)C(C)(C)NC)cc1 [Example 59] |
| 2.2 nM | CC(C)(N)C(NC(=O)c1ccc(OCC#CC2CCCC2)cc1)C(=O)NO (stereo not drawn) [Example 45] |
| 1240 nM | Cc1ccc(C#CCOc2ccc(C(=O)N[C@H](C(=O)NO)C(C)(C)N)cc2)cc1 [Example 66] |
| 15.9 nM | CC#CCOc1ccc(C(=O)NC(C(=O)NO)C(C)(C)N)c(F)c1F (stereo not drawn) [Example 36] |
| 2.6 nM | CC#CCOc1ccc(C(=O)N[C@H](C(=O)NO)C(C)(C)N)cc1F [Example 35] |

same assay, conditions: IC50 (LpxC inhibitory activity), 1 nM P. aeruginosa LpxC, 30 min pre-incubation, 2 μM UDP-3-O-(R-3-hydroxydecanoyl)-GlcNAc, pH 7.5, room temperature

| SMILES | IC50 |
| --- | --- |
| CC#CCOc1ccc(C(=O)N[C@@H](C(=O)NO)[C@@H](N)C(C)C)cc1 [Example 26] | 70 nM |
| CC#CCOc1ccc(C(=O)N[C@H](C(=O)NO)[C@H](N)C2CC2)cc1 [Example 5, N-((1R,2S)-1-amino-1-cyclopropyl-3-(hydroxyamino)-3-oxopropan-2-yl)-4-(but-2-ynyloxy)benzamide] | 124 nM |

From US8372885B2, “Organic compounds and their uses” (Novartis AG, priority 2008, dated 2013)
